Data taken from ChEMBL document CHEMBL1201862, “PubChem BioAssay data set” (2004).
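Method: 48-hour compound exposure of cells in 96-well plates, five concentrations, linear interpolation of endpoints. GI50: concentration for 50% inhibition of growth.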 Active and inactive are the calls of the source. Cut-off read from the data, not from the text of the source: active = GI50 up to about 1.1 µM and inactive = higher.

Columns and labels:
Test in all cases: NCI tumour cell line growth inhibition, 48 h
[1] = tested on: NCI/ADR-RES
[2] = tested on: SF-539
[3] = tested on: Hs-578T
[4] = tested on: SNB-78
[5] = tested on: MDA-MB-435
[6] = tested on: MOLT-4
[7] = tested on: DMS-114
[8] = tested on: K562
[9] = tested on: DMS-273
[10] = tested on: SNB-19
[11] = tested on: A498
[12] = tested on: EKVX
[13] = tested on: U-251
[14] = tested on: HOP-18
[15] = tested on: UACC-257
[16] = tested on: RXF 631
[17] = tested on: KM12
[18] = tested on: PC-3
[19] = tested on: HOP-92
[20] = tested on: HCT-116
[21] = tested on: Malme-3M
[22] = tested on: ACHN
[23] = tested on: NCI-H23
[24] = tested on: TK-10
[25] = tested on: 786-0
[26] = tested on: CCRF-CEM
[27] = tested on: COLO 205
[28] = tested on: T47D
[29] = tested on: RXF 393
[30] = tested on: SW-620
[31] = tested on: DLD-1
[32] = tested on: SK-OV-3
[33] = tested on: UO-31
[34] = tested on: SK-MEL-5
[35] = tested on: SF-295
[36] = tested on: OVCAR-4
[37] = tested on: A549
[38] = tested on: MDA-N
[39] = tested on: LOX IMVI
[40] = tested on: HOP-62
[41] = tested on: XF498
[42] = tested on: BT-549
[43] = tested on: RPMI-8226
[44] = tested on: UACC-62
[45] = tested on: OVCAR-3
[46] = tested on: HT-29
[47] = tested on: SR
[48] = tested on: IGROV-1
[49] = tested on: KM-20L2
[50] = tested on: HCC 2998
[51] = tested on: LXFL 529
[52] = tested on: HCT-15
[53] = tested on: OVCAR-8
[54] = tested on: DU-145
[55] = tested on: NCI-H522
[56] = tested on: NCI-H226
[57] = tested on: OVCAR-5
[58] = tested on: SK-MEL-2
[59] = tested on: M19-MEL
[60] = tested on: SN12C
[61] = tested on: CAKI-1
[62] = tested on: HL-60
[63] = tested on: SK-MEL-28
[64] = tested on: SNB-75
[65] = tested on: MDA-MB-231
[66] = tested on: M14
[67] = tested on: SF-268
[68] = tested on: NCI-H460
[69] = tested on: MCF7

Measured: GI50

COC(=O)c1ccc2c(c1)C(NC(C)=O)CCc1cc(OC)c(OC)c(OC)c1-2 (centres undefined)
active: [1] 41.6 nM | [2] 12.4 nM | [3] 12.2 nM | [4] < 15.2 nM | [5] < 10 nM | [6] 15.1 nM | [7] < 12.6 nM | [8] 12.8 nM | [9] < 10 nM | [10] 18.3 nM | [11] 13.3 nM | [13] < 11.7 nM | [15] 530 nM | [16] 14 nM | [17] < 11.5 nM | [18] < 12.7 nM | [19] 39.1 nM | [20] < 11.4 nM | [21] 15 nM | [22] 18 nM | [23] 13.6 nM | [25] 15 nM | [26] 13.3 nM | [27] 11.9 nM | [29] 13.9 nM | [30] 12.9 nM | [31] 17.3 nM | [32] 18.8 nM | [33] 72.1 nM | [34] 13 nM | [35] 11.7 nM | [37] 18 nM | [38] 11.3 nM | [39] 14.9 nM | [40] 15.8 nM | [41] 60 nM | [42] 104 nM | [43] 15.1 nM | [44] 13.1 nM | [45] < 11.6 nM | [46] 12.5 nM | [47] 12.3 nM | [48] 16.3 nM | [49] 11.8 nM | [50] 32.7 nM | [51] < 15.4 nM | [53] 15.4 nM | [54] 14 nM | [55] 18 nM | [56] 42.4 nM | [57] 112 nM | [58] 20.8 nM | [59] 23.5 nM | [60] 22.3 nM | [61] 17.7 nM | [62] 13.6 nM | [63] 26.5 nM | [64] 12.9 nM | [65] < 20 nM | [66] 15.3 nM | [67] 13.9 nM | [68] 25.9 nM | [69] 61.2 nM
inactive: [12] 4190 nM | [14] > 40400 nM | [24] 16900 nM | [28] > 100000 nM | [36] 11900 nM
36.6 nM: [52]
